“And” between values parts separate entries of the source, which are not always exact repeats. Equal entries are not always repeated.
Key:
[1] = Multiple-dose plasma pharmacokinetics, cycle 1 day 15; type: in vivo, human
Method: The hypothetical mechanisms of action of PF-04136309 were explored by analysis of biopsies, bone marrow aspirates, and peripheral blood (pre- and post-treatment during the study). Serial blood samples were collected from patients to determine the multiple-dose PK of PF-04136309 given in combination with nab-paclitaxel/gemcitabine.
Blood samples sufficient to provide ≥1 mL of plasma were collected for measurement of PF-04136309 concentrations. Plasma PF-04136309 concentrations were quantified with a validated liquid chromatography–mass spectrometry method. PF-04136309 concentration–time data from cycle 1 day 15 were analyzed using noncompartmental methods to estimate PK parameters.

CCL2 = assay: Plasma CCL2 levels by luminex-based immunoassay; type: in vivo, human; settings: most patients, 500 mg (n = 17) and 750 mg (n = 4) BID, over the course of study
Method: The levels of CD14 + CCR2+ IM or other immune-cell phenotypes in the samples from the core needle biopsy, fine-needle aspirate from primary tumor tissue, bone marrow, and peripheral blood were assessed by flow cytometry. CCL2 levels were determined using whole blood plasma by immunoassay using a luminex-based method. The ex vivo inhibition of CCL2-induced pERK by PF-04136309 was measured in whole blood using flow cytometry. Percentages of CD4+, CD8+, and CD4 + FoxP3+ T cells within CD45+ populations were evaluated by flow cytometry in paired fresh biopsy samples from three patients. Two patients provided both baseline and on-study biopsies, and one patient provided a baseline biopsy only.

CCR2 = settings: human monocytes and human whole blood; background statement, no reference given; cited from earlier work
[2] = 500-mg BID (n = 13), steady state
[3] = 500-mg BID group (n = 13), steady state
[4] = 750-mg BID group (n = 2), individual values

Compound: O=C(NCC(=O)N1CC[C@H](N[C@H]2CC[C@@](O)(c3ccc(-c4ncccn4)cn3)CC2)C1)c1cccc(C(F)(F)F)c1 [PF-04136309]
- Coefficient of variation of AUCtau [1, 2]: 30%
- Coefficient of variation of Cmax [1, 2]: 44%
- Coefficient of variation of Cmin [1, 2]: 57%
- Mean AUCtau [1, 3]: 5873 ng·h/mL
- Mean Cmax [1, 3]: 1276 ng/mL
- Median Tmax ([1]; 500-mg BID, oral, with nab-paclitaxel/gemcitabine): 1.42 h
- AUCtau, observed values [1, 4]: 10,600 ng·hr/mL and 15,700 ng·hr/mL
- Cmax, observed values [1, 4]: 2950 ng/mL and 3390 ng/mL
- Change in plasma CCL2 levels (CCL2): increase
- Effect on CCR2-mediated signal transduction, chemotaxis, and CCL2 binding (CCR2): block

— publication PMC7211198, “Phase 1b study of a small molecule antagonist of human chemokine (C-C motif) receptor 2 (PF-04136309) in combination with nab-paclitaxel/gemcitabine in first-line treatment of metastatic pancreatic ductal adenocarcinoma” (Investigational New Drugs, 2019)
